# Source: patent US20220184040A1, “METHOD OF TREATING MALIGNANT RHABDOID TUMOR OF THE OVARY AND SMALL CELL CANCER OF THE OVARY OF THE HYPERCALCEMIC TYPE” (TRANSLATIONAL DRUG DEVELOPMENT, LLC, priority 2019, published 2022)
# “Also recorded” adds a separate entry of the source. Read-outs that look alike come from different tables or passages of the source.
# Legend:
# HDAC4 = HDAC4 (Homo sapiens, UniProt P56524); assay: HDAC isoform inhibition, HDAC4; type: biochemical
# Text: (§1) In contrast to pan-HDAC inhibition, isoform restricted HDAC inhibition revokes immune privilege. HDAC3 has emerged as a key target to enhance immune function: • Decrease in Treg suppressive function • Increase in Natural Killer Cell ligand expression on tumors • Enhance macrophage host defense activity • Upregulation of PD-L1 expression and increased sensitivity to anti-PD1 treatments HDAC6 inhibition has potent immunomodulatory benefits including: • Decrease in expression of the anti-inflammatory cytokine IL-10 • Enhanced expression of MHC class I/II genes and increased expression of known tumor antigens • Decreased immunosuppression and enhanced immune function of melanoma patient T-cells
# A204 = assay: CellTiter-Glo cell viability assay, A204; type: cell-based; conditions: Homo sapiens, read-out: anti-proliferative IC50
# Description: (§2) Cell viability was measured by the CellTiter -GlO® cell viability assay from Promega (Madison, Wis.). The CellTiter-GlO® Luminescent Cell Viability Assay is a homogeneous method to determine the number of viable cells in culture based on quantitation of the ATP present, which signals the presence of metabolically active cells. Following treatment, CellTiter-GlO® is added to treatment wells and incubated at 37° C. luminescence values were measured at using a Molecular Devices Spectramax microplate reader
# (§3) Cells were grown to 70% confluency, trypsinized, counted, and seeded in 96 well flat-bottom plates at a final concentration of 2.5×10^3-5×10^3 cells/well (Day 0). Cells were allowed to incubate in growth media for 24 hours. Treatment with the test agents or standard agents began on Day 1 and continued for 72 hours. At the 72-hour timepoint, treatment containing media was removed. Viable cell numbers are quantified by the CellTiter-GlO® cell viability assay as described above. […]
# (§4) For single agent and combination studies, data from each experiment was collected and expressed as % Cell Growth using the following calculation: […]
# (§5) Where ftest is the fluorescence of the tested sample, and fvehicle is the fluorescence of the vehicle in which the drug is dissolved. […]
# [1] = tested on: SMARCA2 gene expression in BIN-67 cells; assay: SMARCA2 gene expression in treated BIN-67 cells; type: cell-based, human; conditions: in vitro treatment
# CT-26 tumors = assay: Syngeneic CT-26 mouse colon cancer model; type: in vivo
# Text: Given the importance of MHC Class II expression and response to checkpoint inhibitor therapies, we tested the activity of GB-3103 alone and in combination with anti-mPD-1 and anti-mPD-L1 antibodies in a syngeneic CT-26 mouse colon cancer model. […] However, tumor growth resumed on Day 15 and continued to increase until Day 26 (see FIG. 7).
# HDAC1 = HDAC1 (Homo sapiens, UniProt Q13547); assay: HDAC isoform inhibition, HDAC1; type: biochemical
# Sequence of HDAC1 (Q13547 whole entry, canonical isoform): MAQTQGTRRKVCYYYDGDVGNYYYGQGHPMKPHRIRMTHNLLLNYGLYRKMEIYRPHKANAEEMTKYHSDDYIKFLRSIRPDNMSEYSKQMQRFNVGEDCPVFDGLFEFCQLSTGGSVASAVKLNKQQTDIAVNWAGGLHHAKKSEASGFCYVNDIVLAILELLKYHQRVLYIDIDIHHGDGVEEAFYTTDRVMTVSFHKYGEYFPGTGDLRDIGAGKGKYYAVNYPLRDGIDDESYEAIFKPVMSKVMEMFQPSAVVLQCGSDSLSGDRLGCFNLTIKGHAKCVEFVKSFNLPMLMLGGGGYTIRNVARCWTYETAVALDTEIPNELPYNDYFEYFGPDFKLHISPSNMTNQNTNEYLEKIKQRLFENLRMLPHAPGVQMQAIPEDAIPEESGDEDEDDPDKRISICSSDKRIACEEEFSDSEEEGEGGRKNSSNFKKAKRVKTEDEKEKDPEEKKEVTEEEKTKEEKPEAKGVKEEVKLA
# Text: as §1
# [2] = tested on: SMARCA2 protein expression in BIN-67 cells; assay: SMARCA2 protein expression in treated BIN-67 cells; type: cell-based, human; conditions: in vitro treatment
# G401 = assay: CellTiter-Glo cell viability assay, G401; type: cell-based; conditions: Homo sapiens, G-401, read-out: anti-proliferative IC50
# Description: as §2, §3, §4, §5
# SCCOHT-1 = assay: CellTiter-Glo cell viability assay, SCCOHT-1; type: cell-based; conditions: Homo sapiens; SCCOHT-1, 72 hours treatment
# Description: as §2, §3, §4, §5
# H522 = assay: CellTiter-Glo cell viability assay, H522; type: cell-based; conditions: Homo sapiens, NCI-H522; read-out: anti-proliferative IC50
# Description: as §2, §3, §4, §5
# HDAC7 = HDAC7 (Homo sapiens, UniProt Q8WUI4); assay: HDAC isoform inhibition, HDAC7; type: biochemical
# Text: as §1
# G402 = assay: CellTiter-Glo cell viability assay, G402; type: cell-based; conditions: Homo sapiens, G-402, read-out: anti-proliferative IC50
# Description: as §2, §3, §4, §5
# [3] = tested on: Dual SMARCA2 and SMARCA4 deficient cell lines (A204, G401, G402, H522, and A427); assay: Proliferation assays, dual SMARCA2 and SMARCA4 deficient cell lines; type: cell-based; conditions: range over A204, G401, G402, H522, A427
# Description: as §2, §3, §4, §5
# HDAC8 = HDAC8 (Homo sapiens, UniProt Q9BY41); assay: HDAC isoform inhibition, HDAC8; type: biochemical
# Sequence of HDAC8 (Q9BY41 whole entry, canonical isoform): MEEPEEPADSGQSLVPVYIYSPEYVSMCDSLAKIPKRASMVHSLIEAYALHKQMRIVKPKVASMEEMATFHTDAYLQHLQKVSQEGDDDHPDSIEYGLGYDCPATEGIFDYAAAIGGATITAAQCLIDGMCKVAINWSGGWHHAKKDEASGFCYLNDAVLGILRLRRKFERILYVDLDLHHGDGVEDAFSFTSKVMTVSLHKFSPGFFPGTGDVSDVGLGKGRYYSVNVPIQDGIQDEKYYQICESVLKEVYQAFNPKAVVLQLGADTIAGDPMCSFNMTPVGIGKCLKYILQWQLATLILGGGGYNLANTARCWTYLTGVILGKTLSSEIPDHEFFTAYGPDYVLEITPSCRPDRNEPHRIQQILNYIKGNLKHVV
# Text: as §1
# HDAC10 = HDAC10 (Homo sapiens, UniProt Q969S8); assay: HDAC isoform inhibition, HDAC10; type: biochemical
# Text: as §1
# HDAC11 = HDAC11 (Homo sapiens, UniProt Q96DB2); assay: HDAC isoform inhibition, HDAC11; type: biochemical
# Sequence of HDAC11 (Q96DB2 whole entry, canonical isoform): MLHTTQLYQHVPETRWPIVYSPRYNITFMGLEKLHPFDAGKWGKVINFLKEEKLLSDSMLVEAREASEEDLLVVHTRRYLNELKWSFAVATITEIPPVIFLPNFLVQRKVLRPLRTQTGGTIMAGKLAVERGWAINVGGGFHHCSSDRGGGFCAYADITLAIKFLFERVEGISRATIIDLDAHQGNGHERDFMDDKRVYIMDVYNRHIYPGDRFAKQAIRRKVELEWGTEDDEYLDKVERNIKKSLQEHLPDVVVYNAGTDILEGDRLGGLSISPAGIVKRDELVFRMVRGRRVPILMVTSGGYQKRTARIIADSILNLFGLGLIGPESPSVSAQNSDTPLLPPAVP
# Text: as §1
# BIN67 = assay: CellTiter-Glo cell viability assay, BIN67; type: cell-based; conditions: Homo sapiens; BIN67, 72 hours treatment
# Description: as §2, §3, §4, §5
# HDAC5 = HDAC5 (Homo sapiens, UniProt Q9UQL6); assay: HDAC isoform inhibition, HDAC5; type: biochemical
# Sequence of HDAC5 (Q9UQL6 whole entry, canonical isoform): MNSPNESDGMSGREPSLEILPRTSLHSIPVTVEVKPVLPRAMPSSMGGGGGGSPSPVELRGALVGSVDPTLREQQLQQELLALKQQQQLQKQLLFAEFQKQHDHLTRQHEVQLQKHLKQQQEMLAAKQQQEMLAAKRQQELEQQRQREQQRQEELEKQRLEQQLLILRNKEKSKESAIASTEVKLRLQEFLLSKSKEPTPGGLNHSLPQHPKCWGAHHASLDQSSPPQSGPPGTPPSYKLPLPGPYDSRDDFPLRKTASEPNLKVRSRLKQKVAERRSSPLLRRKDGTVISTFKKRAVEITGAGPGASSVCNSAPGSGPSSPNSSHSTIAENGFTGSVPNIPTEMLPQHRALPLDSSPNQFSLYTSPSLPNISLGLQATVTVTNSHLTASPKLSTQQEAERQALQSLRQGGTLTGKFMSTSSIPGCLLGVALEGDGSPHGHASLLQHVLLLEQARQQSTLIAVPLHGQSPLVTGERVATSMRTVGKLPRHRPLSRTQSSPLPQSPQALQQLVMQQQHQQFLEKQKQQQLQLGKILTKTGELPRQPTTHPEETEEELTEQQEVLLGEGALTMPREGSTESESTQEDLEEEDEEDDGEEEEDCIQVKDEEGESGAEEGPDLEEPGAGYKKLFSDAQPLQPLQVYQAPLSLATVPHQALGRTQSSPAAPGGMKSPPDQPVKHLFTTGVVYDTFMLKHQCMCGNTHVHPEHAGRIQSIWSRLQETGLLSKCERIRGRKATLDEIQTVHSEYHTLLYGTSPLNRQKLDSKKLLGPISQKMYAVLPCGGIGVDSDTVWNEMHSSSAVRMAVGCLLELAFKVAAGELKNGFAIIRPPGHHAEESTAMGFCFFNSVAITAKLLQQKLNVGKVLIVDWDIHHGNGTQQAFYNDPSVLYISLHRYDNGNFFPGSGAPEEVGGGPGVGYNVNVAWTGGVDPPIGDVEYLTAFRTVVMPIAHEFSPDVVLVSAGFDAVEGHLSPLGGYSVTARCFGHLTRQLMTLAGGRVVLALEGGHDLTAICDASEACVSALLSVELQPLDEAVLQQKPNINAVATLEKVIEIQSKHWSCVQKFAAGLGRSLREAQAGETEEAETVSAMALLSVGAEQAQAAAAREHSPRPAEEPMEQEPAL
# Text: as §1
# COV434 = assay: CellTiter-Glo cell viability assay, COV434; type: cell-based; conditions: Homo sapiens
# Description: as §2, §3, §4, §5
# [4] = tested on: BIN67 human tumor xenografts; assay: SCCOHT xenograft model (BIN-67); type: in vivo, mice; conditions: for mean tumor regression: BIN67 xenografts in mice, two weeks post-treatment initiation
# Description: In vivo treatment of tumors in an SCCOHT xenograft model (BIN-67) was evaluated. In vivo xenograft tumors from SCCOHT cell line BIN-67 were dosed with (S)-N-hydroxy-2-(2-(4-methoxyphenyl)butanamido)thiazole-5-carboxamide (i.e., GB-3103) for 60 days.
# HDAC9 = HDAC9 (Homo sapiens, UniProt Q9UKV0); assay: HDAC isoform inhibition, HDAC9; type: biochemical
# Sequence of HDAC9 (Q9UKV0 whole entry, canonical isoform): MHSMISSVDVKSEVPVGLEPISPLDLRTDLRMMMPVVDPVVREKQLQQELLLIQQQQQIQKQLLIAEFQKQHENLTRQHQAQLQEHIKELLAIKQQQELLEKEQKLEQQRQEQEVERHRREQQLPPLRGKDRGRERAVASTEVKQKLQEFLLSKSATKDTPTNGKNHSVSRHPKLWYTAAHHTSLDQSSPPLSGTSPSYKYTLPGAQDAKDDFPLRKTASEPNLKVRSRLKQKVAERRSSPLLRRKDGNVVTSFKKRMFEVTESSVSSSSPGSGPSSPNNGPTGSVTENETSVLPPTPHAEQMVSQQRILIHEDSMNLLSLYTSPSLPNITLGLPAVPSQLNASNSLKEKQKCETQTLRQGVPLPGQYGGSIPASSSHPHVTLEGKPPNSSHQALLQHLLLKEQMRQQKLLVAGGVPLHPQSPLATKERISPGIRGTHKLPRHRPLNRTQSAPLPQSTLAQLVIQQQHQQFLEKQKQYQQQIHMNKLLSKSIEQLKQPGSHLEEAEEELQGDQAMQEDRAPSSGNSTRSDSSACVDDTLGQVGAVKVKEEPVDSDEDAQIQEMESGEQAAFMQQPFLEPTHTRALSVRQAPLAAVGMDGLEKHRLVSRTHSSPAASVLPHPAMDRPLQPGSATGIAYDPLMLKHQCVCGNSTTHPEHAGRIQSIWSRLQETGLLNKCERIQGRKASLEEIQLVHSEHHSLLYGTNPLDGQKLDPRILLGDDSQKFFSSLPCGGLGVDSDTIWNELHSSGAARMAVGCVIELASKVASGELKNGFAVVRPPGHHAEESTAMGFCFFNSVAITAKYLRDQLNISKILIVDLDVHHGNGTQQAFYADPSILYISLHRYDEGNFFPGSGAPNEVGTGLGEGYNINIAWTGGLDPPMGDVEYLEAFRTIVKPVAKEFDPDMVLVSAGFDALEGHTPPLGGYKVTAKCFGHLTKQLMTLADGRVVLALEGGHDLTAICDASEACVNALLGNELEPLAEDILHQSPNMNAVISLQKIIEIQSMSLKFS
# Text: as §1
# HDAC3 = HDAC3 (Homo sapiens, UniProt O15379); assay: HDAC isoform inhibition, HDAC3; type: biochemical
# Text: as §1
# A427 = assay: CellTiter-Glo cell viability assay, A427; type: cell-based; conditions: Homo sapiens, A-427, read-out: anti-proliferative IC50
# Description: as §2, §3, §4, §5
# HDAC2 = HDAC2 (Homo sapiens, UniProt Q92769); assay: HDAC isoform inhibition, HDAC2; type: biochemical
# Sequence of HDAC2 (Q92769 whole entry, canonical isoform): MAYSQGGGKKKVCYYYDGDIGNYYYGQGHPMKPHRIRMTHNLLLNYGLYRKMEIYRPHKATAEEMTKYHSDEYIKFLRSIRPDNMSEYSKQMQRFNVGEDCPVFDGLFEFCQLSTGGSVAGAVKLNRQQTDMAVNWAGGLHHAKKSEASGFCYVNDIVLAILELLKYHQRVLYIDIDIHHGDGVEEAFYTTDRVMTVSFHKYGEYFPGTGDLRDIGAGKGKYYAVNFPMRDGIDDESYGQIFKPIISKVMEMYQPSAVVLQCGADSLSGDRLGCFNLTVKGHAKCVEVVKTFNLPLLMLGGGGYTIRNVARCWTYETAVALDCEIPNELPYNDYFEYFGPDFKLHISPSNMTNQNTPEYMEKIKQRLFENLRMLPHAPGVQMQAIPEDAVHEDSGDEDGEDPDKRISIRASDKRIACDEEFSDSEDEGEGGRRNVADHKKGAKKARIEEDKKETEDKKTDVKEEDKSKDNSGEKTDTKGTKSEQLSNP
# Text: as §1
# [5] = tested on: SCCOHT cell lines (BIN67, COV434, and SCCOHT-1); assay: Cell proliferation assays, three SCCOHT cell lines; type: cell-based; conditions: Homo sapiens; range over BIN67, COV434, SCCOHT-1
# Description: as §2, §3, §4, §5
# BIN67 cells = assay: RNA-Seq analyses of treated BIN67 cells; type: cell-based, human
# [6] = tested on: G401 human malignant rhabdoid tumor xenografts; assay: Malignant rhabdoid tumor xenograft model (G401); type: in vivo, mice
# Description: In vivo treatment of tumors in a malignant rhabdoid tumor xenograft model (G401) was evaluated. In vivo xenograft tumors from MRT line G401 were dosed with (S)-N-hydroxy-2-(2-(4-methoxyphenyl)butanamido)thiazole-5-carboxamide (i.e., GB-3103) for 30 days.
# HDAC6 = HDAC6 (Homo sapiens, UniProt Q9UBN7); assay: HDAC isoform inhibition, HDAC6; type: biochemical
# Sequence of HDAC6 (Q9UBN7 whole entry, canonical isoform): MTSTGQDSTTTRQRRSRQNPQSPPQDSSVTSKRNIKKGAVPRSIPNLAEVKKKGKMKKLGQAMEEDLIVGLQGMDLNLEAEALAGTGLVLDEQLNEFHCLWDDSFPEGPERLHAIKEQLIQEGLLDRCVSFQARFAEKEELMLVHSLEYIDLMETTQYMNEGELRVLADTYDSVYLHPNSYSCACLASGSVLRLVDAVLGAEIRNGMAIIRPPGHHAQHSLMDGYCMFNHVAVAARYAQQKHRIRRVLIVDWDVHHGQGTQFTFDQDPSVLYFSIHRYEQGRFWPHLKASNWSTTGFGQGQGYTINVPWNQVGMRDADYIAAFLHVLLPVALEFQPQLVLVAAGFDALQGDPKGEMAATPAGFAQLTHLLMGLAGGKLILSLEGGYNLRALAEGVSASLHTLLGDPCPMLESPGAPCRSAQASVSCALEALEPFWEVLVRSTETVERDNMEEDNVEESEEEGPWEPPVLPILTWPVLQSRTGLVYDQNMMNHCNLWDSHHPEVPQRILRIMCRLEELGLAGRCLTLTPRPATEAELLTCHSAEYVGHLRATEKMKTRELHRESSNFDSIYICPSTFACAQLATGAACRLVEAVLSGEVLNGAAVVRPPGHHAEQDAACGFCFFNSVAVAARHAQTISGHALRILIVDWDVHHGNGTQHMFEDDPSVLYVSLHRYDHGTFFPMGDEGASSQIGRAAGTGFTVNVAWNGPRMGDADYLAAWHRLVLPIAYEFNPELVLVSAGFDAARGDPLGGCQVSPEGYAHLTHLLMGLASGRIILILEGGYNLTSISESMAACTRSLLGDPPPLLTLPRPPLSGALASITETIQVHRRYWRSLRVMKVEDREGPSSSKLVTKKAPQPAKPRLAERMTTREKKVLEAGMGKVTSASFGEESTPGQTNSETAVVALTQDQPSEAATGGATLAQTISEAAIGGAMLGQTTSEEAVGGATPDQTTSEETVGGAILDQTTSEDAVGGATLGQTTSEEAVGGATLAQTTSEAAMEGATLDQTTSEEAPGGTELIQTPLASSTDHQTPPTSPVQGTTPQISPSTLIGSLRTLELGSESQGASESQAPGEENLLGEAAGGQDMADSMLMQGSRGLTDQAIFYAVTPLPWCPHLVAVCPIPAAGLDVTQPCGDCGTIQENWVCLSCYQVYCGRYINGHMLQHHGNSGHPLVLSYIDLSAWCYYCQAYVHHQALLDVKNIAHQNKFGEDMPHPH
# Text: as §1
smiles,measurement,setting,value
"CC[C@H](C(=O)Nc1ncc(C(=O)NO)s1)c1ccc(OC)cc1 [GB-3103, (S)-N-hydroxy-2-(2-(4-methoxyphenyl)butanamido)thiazol-5-carboxamide]",IC50,HDAC4,138 nM
same,IC50,A204,95 nM
same,induction of SMARCA2 gene (mRNA) expression,[1],concentration and time dependent induction of SMARCA2 gene re-expression; also recorded: potent concentration- and time-dependent induction of SMARCA2 expression at both mRNA and protein levels
same,effect on established tumors,"CT-26 tumors; CT-26 syngeneic model, combined with anti-mPD-1 antibody",regression of established CT-26 tumors
same,effect on established tumors,"CT-26 tumors; CT-26 syngeneic model, combined with anti-mPD-L1 antibody",regression of established CT-26 tumors
same,TGI,"CT-26 tumors; CT-26 syngeneic model, single agent",93%
same,day on which tumor growth resumed,"CT-26 tumors; CT-26 syngeneic model, single agent, growth continued until Day 26",15 days
same,tumor memory response,"CT-26 tumors; alone and in combination with anti-PD-1/anti-PD-L1 checkpoint modulators, mice",creates a tumor memory response preventing re-growth of tumors
same,IC50,HDAC1,1 nM
same,induction of SMARCA2 protein expression,[2],potent concentration- and time-dependent induction of SMARCA2 expression at both mRNA and protein levels
same,IC50,G401,138 nM
same,IC50,SCCOHT-1,293 nM
same,IC50,H522,102 nM
same,IC50,HDAC7,34.5 nM
same,IC50,G402,71 nM
same,IC50,[3],50 to 200 nM
same,IC50,HDAC8,133 nM
same,IC50,HDAC10,2.03 nM
same,IC50,HDAC11,5780 nM
same,IC50,BIN67,51 nM
same,IC50,HDAC5,73.5 nM
same,IC50,"COV434; COV434, read-out: anti-proliferative IC50",35 nM
same,IC50,"COV434; COV434, 72 hours treatment, read-out: IC50",35 nM
same,mean tumor regression,[4]; 5 mg/kg QD,26%
same,mean tumor regression,[4]; 10 mg/kg QD,33%
same,tumor volume compared to vehicle control tumors,"[4]; BIN-67 xenograft, dosed for 60 days",statistically significant decreases in volume
same,IC50,HDAC9,187 nM
same,IC50,HDAC3,0.565 nM
same,IC50,A427,174 nM
same,IC50,HDAC2,5.3 nM
same,IC50,[5],51 to 293 nM
same,RNA-Seq findings,BIN67 cells,affects DNA replication and mRNA stability as well as inducing the expression of MHC Class II proteins
same,tumor volume compared to vehicle control tumors,"[6]; G401 xenograft, dosed for 30 days",statistically significant decreases in volume
same,tumor growth inhibition (TGI) compared to vehicle control,"[6]; G401 xenografts in mice, 5 mg/kg, QD, P<0.05",70%
same,IC50,HDAC6,0.706 nM
same,mode of inhibition of HDAC6,HDAC6,irreversible
